According to patent US20250255994A1, “DIMERIC IMMUNOCONJUGATES FOR USE IN TREATING CANCERS AND METHODS OF USE” (Medicovestor, Inc., priority 2023, published 2025):
“Also recorded” adds a separate entry of the source. Values belong to the molecule of their own block, whether it stands above or below them. Starred links: 1 amine or outer side, 2 acyl side, 3 side chain; linkers in the order of their positions; H or OH if unused. Non-standard residues stand in square brackets, D forms with d. Residues, ends and D or L forms follow the SMILES beside them. *: point of attachment. Exatecan = CC[C@@]1(O)C(=O)OCc2c1cc1n(c2=O)Cc2c-1nc1cc(F)c(C)c3c1c2[C@@H](N*)CC3; Hexanoyl(6-maleimido) = O=C1C=CC(=O)N1CCCCCC(=O)*; NHCH2OCH2CO = O=C(COCN[*:1])[*:2]

What was measured:
SK-OV-3 cells [1] = assay: SK-OV-3 cytotoxicity assay (luminescence), Example 9; assay type: cell-based, human; conditions: SK-OV-3 cells at 2000 cells/well; five additional days
Protocol: The SK-OV-3 cells are then treated with various concentrations of (1) the SP17-AB2 antibody, (2) the SP17-AB2-DXD immunoconjugate, (3) the SP17-AB2-Ozogamicin immunoconjugate, (4) both the SP17-AB2-DXD immunoconjugate and the SP17-AB2-Ozogamicin, (5) the dSP17-AB2-DXD/Ozogamicin immunoconjugate, (6) hdSP17-AB2, (7) hIgG4, or (8) deruxtecan. […] IC50s and maximum cytotoxicity are then determined.
The IC50 of (4) the combination of SP17-AB2-DXD and SP17-AB2-Ozogamicin is determined based on the concentration of SP17-AB2-DXD and SP17-AB2-Ozogamicin individually and not based on the combined concentration. For example, when SK-OV-3 cells are incubated at a concentration of SP17-AB2-DXD and SP17-AB2-Ozogamicin of 128 nanomolar each, then the IC50 is calculated based on the 128 nanomolar concentration (and not the 256 nanomolar combined concentration) so that 128 nanomolar of (4) SP17-AB2-DXD and SP17-AB2-Ozogamicin contains about the same concentration of deruxtecan, ozogamicin, and antigen-binding sites as 128 nanomolar of (5) the dSP17-AB2-DXD/Ozogamicin immunotherapeutic.

SK-OV-3 cells [2] = assay: SK-OV-3 cytotoxicity assay (luminescence), Example 4; conditions: 5 or 6 additional days; for Max Cytotoxicity: FIG. 9 axis: percent cytotoxicity
Protocol: SK-OV-3 cells were seeded at 1000, 2000, or 3000 cells per well and incubated overnight in advance of a cytotoxicity assay. […] The SK-OV-3 cells were treated with various concentrations of the SP17-AB2 antibody, the SP17-AB2-DXD immunoconjugate, a control human IgG4 antibody (hIgG4), or deruxtecan alone (DXD). The cells were incubated for 5 or 6 additional days, and cytotoxicity was then measured using a luminescence assay and En Vision™ plate reader (PerkinElmer, Massachusetts, United States).

ID8 cells = assay: ID8 cytotoxicity assay, Example 4; assay type: cell-based, mouse; conditions: 3 additional days, FIG. 10 axis: percent cytotoxicity
Protocol: […] The cells were then treated with various concentrations of either the SP17-AB2 antibody, the SP17-AB2-DXD immunoconjugate, hIgG4, or deruxtecan alone. The cells were incubated for 3 additional days, and then cytotoxicity was measured.

[3] = target: T1, recombinant 6His-Sp17 protein (human, UniProt Q15506 1-151); assay: surface plasmon resonance, 6His-Sp17 at 6.25-300 nanomolar as analyte
T1 construct: Analyte of the surface plasmon resonance experiment; not shown: 6His tag
T1 sequence (looked up): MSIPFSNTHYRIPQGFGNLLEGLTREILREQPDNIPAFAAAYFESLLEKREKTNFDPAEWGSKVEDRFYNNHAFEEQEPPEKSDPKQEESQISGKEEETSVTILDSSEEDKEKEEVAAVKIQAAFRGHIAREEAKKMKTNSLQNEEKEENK
Text: (§1) The lines correspond, from highest to lowest, to fitted cycles for 300 nanomolar, 100 nanomolar, 50 nanomolar, 25 nanomolar, 12.5 nanomolar, and 6.25 nanomolar concentrations of 6His-Sp17.
(§2) The nucleotide sequences encoding the VH and VL regions of Example 1 were cloned into a […] heavy chain gene and a mouse kappa light chain gene, respectively, and expressed in CHO-S cells to produce a mouse-human chimeric antibody, which was named chAB2. Successful generation of the antibody was confirmed by SDS-PAGE and western blotting using anti-mouse heavy and light chain antibodies and recombinant Sp17 protein (FIGS. 2 & 3). The chAB2 antibody was reactive to mouse surface Sp17 protein expressed on the mouse ovarian cancer cell line ID8 (FIG. 4).

[4] = target: T1, recombinant 6His-Sp17 protein; assay: surface plasmon resonance (Biacore T200), 6His-Sp17 at 6.25-300 nanomolar as analyte
Text: as §1, §2

[5] = target: T2, recombinant 6His-Sp17 protein (Homo sapiens, UniProt Q15506); assay: Surface plasmon resonance (Biacore T200) of chAB2 binding to Sp17; conditions: SPR
T2 construct: 6His
T2 sequence (Q15506 1-151): T1 sequence (looked up)
Text: as §1
as §2, with “3).” for “3). The chAB2 antibody was reactive to mouse surface Sp17 protein expressed on the mouse ovarian cancer cell line ID8 (FIG. 4).”

[6] = target: T3, mouse surface Sp17 protein expressed on the mouse ovarian cancer cell line ID8 (Mus musculus, UniProt Q62252); assay: Flow cytometry of ID8 cells labeled with chAB2 and anti-mouse FITC antibody; assay type: cell-based; conditions: relative to anti-mouse FITC antibody alone
T3 construct: mouse surface Sp17 protein expressed on the mouse ovarian cancer cell line ID8; endogenous in cells; host or cells: ID8 mouse ovarian cancer cells
T3 sequence (Q62252 1-149): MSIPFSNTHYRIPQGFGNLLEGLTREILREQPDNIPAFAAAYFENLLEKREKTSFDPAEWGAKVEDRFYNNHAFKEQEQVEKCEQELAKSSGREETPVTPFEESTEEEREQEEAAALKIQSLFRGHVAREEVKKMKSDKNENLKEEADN
Protocol: FIG. 4 consists of three panels. The left panel is a graph that depicts flow cytometry results for ID8 cells incubated with an anti-mouse fluorescein isothiocyanate (FITC) antibody, but without a primary antibody. The middle panel is a graph that depicts flow cytometry results for ID8 cells labeled with the anti-Sp17 antibody chAB2 and the anti-mouse FITC antibody.
as §2, with “3).” for “3). The chAB2 antibody was reactive to mouse surface Sp17 protein expressed on the mouse ovarian cancer cell line ID8 (FIG. 4).”

33 normal human tissues = assay: Immunohistochemistry on a normal tissue microarray (specificity); assay type: binding
Protocol: The specificity of the chAB2 antibody for Sp17 was determined with immunohistochemistry on a normal tissue microarray, which consisted of 33 normal tissues obtained from 2-3 human donors per tissue. The normal tissues included brain, eye, adrenal gland, hypophyseal, thyroid, parathyroid, tonsil, thymus, spleen, heart, lung, larynx, esophagus, stomach, small intestine, colon, liver, pancreas, salivary gland, kidney, bone, skeletal, skin, peripheral nerve, mesothelial, breast, ovary, endometrium, cervix, testis, and prostate.

[7] = SK-OV-3 cells at 1000 cells/well
[8] = SK-OV-3 cells at 2000 cells/well
[9] = SK-OV-3 cells at 3000 cells/well

Molecule: CC[C@@]1(O)C(=O)OCc2c1cc1n(c2=O)Cc2c-1nc1cc(F)c(C)c3c1c2[C@@H](NC(=O)COCNC(=O)CNC(=O)[C@H](Cc1ccccc1)NC(=O)CNC(=O)CNC(=O)CCCCCN1C(=O)C=CC1=O)CC3 [deruxtecan] ({Hexanoyl(6-maleimido)}-GGFG[NHCH2OCH2CO]-Exatecan)
- Max Cytotoxicity (SK-OV-3 cells [1]): 97
- IC50 (SK-OV-3 cells [2]; [7]): 0.75 nM
- Max Cytotoxicity (SK-OV-3 cells [2]; [7]): 98
- IC50 (SK-OV-3 cells [2]; [8]): 1.1 nM
- Max Cytotoxicity (SK-OV-3 cells [2]; [8]): 97
- IC50 (SK-OV-3 cells [2]; [9]): 1.2 nM
- Max Cytotoxicity (SK-OV-3 cells [2]; [9]): 97
- Max Cytotoxicity (ID8 cells; ID8 cells at 250 cells/well): 94
- Max Cytotoxicity (ID8 cells; ID8 cells at 500 cells/well): 93

- koff [3]: 0.00013 s⁻¹
- kon [3]: 62600 M⁻¹ s⁻¹
- Kd [4]: 2.07 nM
B1: mouse-human chimeric anti-Sp17 IgG2a/kappa monoclonal antibody chAB2 (antibody, V domains shown)
VH: QVQLQQSGAEVKKPGSSVKVSCKASGGTFSSYAISWVRQAPGQGLEWMGRIIPILGIANYAQKFQGRVTITADKSTSTAYMELSSLRSEDTAVYYCARPSEEVVAAYGAFDIWGQGTTVTVSS
VL: EIVLTQSPLSLPVRPGEPASISCRASQSLLRSDGFNYLDWYLQKPGQSPQLLVYLGSNRASGVPDRFSGSGSGTDFTLKISRVEAEDVGVYYCMQAVQTPYIFGQGTKLEIK
notes: also called chimeric antibody; anti-Sp17 antibody chAB2

- association rate constant (ka) ([5]; 6.25-300 nanomolar 6His-Sp17): 62,600 per mole per second
- Kd ([5]; read-out: dissociation constant (KD)): ~2 nM
- binding to testis (immunohistochemistry) (33 normal human tissues; testis tissue): bound to testis
B2: chAB2: mouse-human chimeric anti-Sp17 antibody: human VH/VL in mouse IgG2a heavy chain and mouse kappa light chain, expressed in CHO-S cells (antibody, V domains shown)
VH: B1 VH
VL: B1 VL
- reactivity to surface Sp17 on ID8 cells (mean fluorescent intensity) [6]: reactive to mouse surface Sp17 protein; also recorded: increased mean fluorescent intensity
- binding to / cross-reactivity with normal tissues (immunohistochemistry) (33 normal human tissues; 33 normal tissues, 2-3 human donors per tissue): lack detectable cross-reactivity; also recorded: did not bind to normal tissues
